Test results taken from patent publication US20230226005A1, “Methods of Treating, Ameliorating, Shortening Duration, and/or Reversing Symptoms and/or Complications of a Coronavirus Infection” (Yale University, priority 2020, published 2023).

Assays:
SARS-CoV-2 = assay: Phase IIa double-blind placebo-controlled study, camostat mesylate 200 mg four times daily for seven days: viral load (log10) by COVID-19 RT-PCR of nasopharyngeal swab and saliva; type: in vivo; details: for viral load (log10) Mean / viral load (log10) Median / change in viral load from baseline, Mean / change in viral load from baseline, Median: S gene; for viral load Camostat LSMean Change (SE) / viral load change Difference (SE) between treatment groups: ANCOVA linear mixed model, n = 57; for viral load change Difference (SE) between treatment groups: placebo minus camostat
COVID-19 infection [1] = assay: Phase IIa study: chest/respiratory-family symptom score; type: in vivo
COVID-19 infection [2] = assay: Phase IIa study: smell/taste-family symptom score; type: in vivo; details: for smell/taste-family symptoms, Fitzmaurice mixed effects model, Effect: Camostat vs Placebo
SARS-CoV-1 = details: mice; reduced from 100%; concentration similar to clinically achievable concentration in humans; cited from earlier work
[3] = visit 3 (day 4), listed as Camostat

## CN(C)C(=O)COC(=O)Cc1ccc(OC(=O)c2ccc(NC(=N)N)cc2)cc1 [camostat, 4-[[4-[(Aminoiminomethyl)amino]benzoyl]oxy]benzeneacetic acid 2-(dimethylamino)-2-oxoethyl ester]
SARS-CoV-2; visit 2 (day 2)
  viral load (log10) Mean: 3.04 log10
  viral load (log10) Median: 3.22 log10
  viral load Camostat LSMean Change (SE): −1.10 (0.30) log10
  viral load change Difference (SE) between treatment groups: −0.01 (0.42) log10
SARS-CoV-2; visit 3 (day 4)
  change in viral load from baseline, Mean: −2.06 log10
  change in viral load from baseline, Median: −1.94 log10
  viral load (log10) Mean: 2.42 log10
  viral load (log10) Median: 1.01 log10
  viral load Camostat LSMean Change (SE): −1.94 log10
  viral load change Difference (SE) between treatment groups: −0.69 log10
SARS-CoV-2; visit 4 (day 6)
  change in viral load from baseline, Mean: −2.70 log10
  change in viral load from baseline, Median: −2.41 log10
  viral load (log10) Mean: 1.48 log10
  viral load (log10) Median: 0.00 log10
  viral load Camostat LSMean Change (SE): −3.22 (0.46) log10
  viral load change Difference (SE) between treatment groups: −0.39 (0.63) log10
SARS-CoV-2; visit 5 (day 14)
  change in viral load from baseline, Mean: −4.20 log10
  change in viral load from baseline, Median: −4.28 log10
  viral load (log10) Mean: 0.27 log10
  viral load (log10) Median: 0.00 log10
SARS-CoV-2; visit 6 (day 28)
  change in viral load from baseline, Mean: −4.37 log10
  change in viral load from baseline, Median: −4.88 log10
  viral load (log10) Mean: 0.00 log10
  viral load (log10) Median: 0.00 log10
SARS-CoV-2; [3]
  viral load Camostat LSMean Change (SE): −1.94 (0.32) log10
  viral load change Difference (SE) between treatment groups: −0.69 (0.45) log10
COVID-19 infection [1]; day 0
  chest/respiratory-family symptom score, Fitzmaurice model, Camostat: 7.5 (0.7)
COVID-19 infection [1]; day 1
  chest/respiratory-family symptom score, Fitzmaurice model, Camostat: 7.7 (0.8)
  chest/respiratory-family symptom score, Fitzmaurice model, Effect (placebo vs camostat): −0.1 (0.9)
COVID-19 infection [1]; day 2
  chest/respiratory-family symptom score, Fitzmaurice model, Camostat: 7.6 (0.8)
  chest/respiratory-family symptom score, Fitzmaurice model, Effect (placebo vs camostat): −0.5 (0.9)
COVID-19 infection [1]; day 3
  chest/respiratory-family symptom score, Fitzmaurice model, Camostat: 7.5 (0.8)
  chest/respiratory-family symptom score, Fitzmaurice model, Effect (placebo vs camostat): −0.4 (0.9)
COVID-19 infection [1]; day 4
  chest/respiratory-family symptom score, Fitzmaurice model, Camostat: 8 (0.8)
  chest/respiratory-family symptom score, Fitzmaurice model, Effect (placebo vs camostat): −1.7 (0.9)
COVID-19 infection [1]; day 5
  chest/respiratory-family symptom score, Fitzmaurice model, Camostat: 7 (0.8)
  chest/respiratory-family symptom score, Fitzmaurice model, Effect (placebo vs camostat): −0.8 (0.9)
COVID-19 infection [1]; day 6
  chest/respiratory-family symptom score, Fitzmaurice model, Camostat: 6.6 (0.8)
  chest/respiratory-family symptom score, Fitzmaurice model, Effect (placebo vs camostat): −0.7 (0.9)
COVID-19 infection [1]; day 7
  chest/respiratory-family symptom score, Fitzmaurice model, Camostat: 6.2 (0.8)
  chest/respiratory-family symptom score, Fitzmaurice model, Effect (placebo vs camostat): −0.7 (0.9)
COVID-19 infection [1]; day 8
  chest/respiratory-family symptom score, Fitzmaurice model, Camostat: 5.7 (0.8)
  chest/respiratory-family symptom score, Fitzmaurice model, Effect (placebo vs camostat): −1.4 (0.9)
COVID-19 infection [1]; day 9
  chest/respiratory-family symptom score, Fitzmaurice model, Camostat: 5.4 (0.8)
  chest/respiratory-family symptom score, Fitzmaurice model, Effect (placebo vs camostat): −1.2 (0.9)
COVID-19 infection [1]; day 10
  chest/respiratory-family symptom score, Fitzmaurice model, Camostat: 4.9 (0.8)
  chest/respiratory-family symptom score, Fitzmaurice model, Effect (placebo vs camostat): −1 (0.9)
COVID-19 infection [1]; day 11
  chest/respiratory-family symptom score, Fitzmaurice model, Camostat: 4.2 (0.8)
  chest/respiratory-family symptom score, Fitzmaurice model, Effect (placebo vs camostat): −0.5 (0.9)
COVID-19 infection [1]; day 12
  chest/respiratory-family symptom score, Fitzmaurice model, Camostat: 4 (0.8)
  chest/respiratory-family symptom score, Fitzmaurice model, Effect (placebo vs camostat): −1 (0.9)
COVID-19 infection [1]; day 13
  chest/respiratory-family symptom score, Fitzmaurice model, Camostat: 3.9 (0.9)
  chest/respiratory-family symptom score, Fitzmaurice model, Effect (placebo vs camostat): −1.1 (0.9)
COVID-19 infection [1]; day 14
  chest/respiratory-family symptom score, Fitzmaurice model, Camostat: 3.5 (0.9)
  chest/respiratory-family symptom score, Fitzmaurice model, Effect (placebo vs camostat): −0.8 (0.9)
COVID-19 infection [2]; Day 0
  smell/taste-family symptoms, Fitzmaurice mixed effects model, Camostat: 1.4 (0.2)
COVID-19 infection [2]; Day 1
  smell/taste-family symptoms, Fitzmaurice mixed effects model, Camostat: 1.4 (0.2)
  smell/taste-family symptoms, Fitzmaurice mixed effects model, Effect: 0.5 (0.3)
COVID-19 infection [2]; Day 2
  smell/taste-family symptoms, Fitzmaurice mixed effects model, Camostat: 1.4 (0.2)
  smell/taste-family symptoms, Fitzmaurice mixed effects model, Effect: 0.7 (0.3)
COVID-19 infection [2]; Day 3
  smell/taste-family symptoms, Fitzmaurice mixed effects model, Camostat: 1.3 (0.2)
  smell/taste-family symptoms, Fitzmaurice mixed effects model, Effect: 1 (0.3)
COVID-19 infection [2]; Day 4
  smell/taste-family symptoms, Fitzmaurice mixed effects model, Camostat: 1.2 (0.2)
  smell/taste-family symptoms, Fitzmaurice mixed effects model, Effect: 1 (0.3)
COVID-19 infection [2]; Day 5
  smell/taste-family symptoms, Fitzmaurice mixed effects model, Camostat: 1.1 (0.2)
  smell/taste-family symptoms, Fitzmaurice mixed effects model, Effect: 1.2 (0.3)
COVID-19 infection [2]; Day 6
  smell/taste-family symptoms, Fitzmaurice mixed effects model, Camostat: 1 (0.2)
  smell/taste-family symptoms, Fitzmaurice mixed effects model, Effect: 0.7 (0.3)
COVID-19 infection [2]; Day 7
  smell/taste-family symptoms, Fitzmaurice mixed effects model, Camostat: 0.8 (0.2)
  smell/taste-family symptoms, Fitzmaurice mixed effects model, Effect: 0.7 (0.3)
COVID-19 infection [2]; Day 8
  smell/taste-family symptoms, Fitzmaurice mixed effects model, Camostat: 0.8 (0.2)
  smell/taste-family symptoms, Fitzmaurice mixed effects model, Effect: 0.8 (0.3)
COVID-19 infection [2]; Day 9
  smell/taste-family symptoms, Fitzmaurice mixed effects model, Camostat: 0.9 (0.2)
  smell/taste-family symptoms, Fitzmaurice mixed effects model, Effect: 0.6 (0.3)
COVID-19 infection [2]; Day 10
  smell/taste-family symptoms, Fitzmaurice mixed effects model, Camostat: 0.9 (0.2)
  smell/taste-family symptoms, Fitzmaurice mixed effects model, Effect: 0.5 (0.3)
COVID-19 infection [2]; Day 11
  smell/taste-family symptoms, Fitzmaurice mixed effects model, Camostat: 0.9 (0.2)
  smell/taste-family symptoms, Fitzmaurice mixed effects model, Effect: 0.3 (0.3)
COVID-19 infection [2]; Day 12
  smell/taste-family symptoms, Fitzmaurice mixed effects model, Camostat: 0.9 (0.2)
  smell/taste-family symptoms, Fitzmaurice mixed effects model, Effect: 0.2 (0.3)
COVID-19 infection [2]; Day 13
  smell/taste-family symptoms, Fitzmaurice mixed effects model, Camostat: 0.7 (0.3)
  smell/taste-family symptoms, Fitzmaurice mixed effects model, Effect: 0.4 (0.3)
COVID-19 infection [2]; Day 14
  smell/taste-family symptoms, Fitzmaurice mixed effects model, Camostat: 0.8 (0.3)
  smell/taste-family symptoms, Fitzmaurice mixed effects model, Effect: 0.4 (0.3)
SARS-CoV-1
  mortality following SARS-CoV-1 infection: 30-35%
